Source: publication PMC11477482 (Molecules, 2024)
“Also recorded” adds a separate entry of the source.

Experiments:
[1] = tested on: THP-1 cells (DNFB-induced CD54 and CD86 expression); test: Inhibition of THP-1 maturation induced by the allergen DNFB (anti-allergic activity); format: cell-based, human; conditions: DNFB 8 µM
Description: (§1) The human keratinocytes (HaCaT, CLS 300493, Eppelheim, Germany) cell line was cultured with Dulbecco’s Modified Eagle’s Medium (DMEM) (Sigma-Aldrich, St. Louis, MO, USA), supplemented with 10% (v/v) of heat-inactivated fetal bovine serum (FBS), 1% (v/v) antibiotic solution (from a 10,000 U/mL penicillin and 10,000 μg/mL streptomycin stock) (Gibco, Carlsbad, CA, USA), 3.7 g/L sodium bicarbonate, and 1 mM sodium pyruvate (Sigma-Aldrich, St. Louis, MO, USA). The cell culture of keratinocytes was detached with EDTA solution 1X (Sigma-Aldrich, St. Louis, MO, USA) when the cells reached 70–80% confluence in cell culture flasks. The mouse macrophage cell line (RAW 264.7, ATCC TIB-71, Manassas, VA, USA) was cultured in DMEM supplemented with 10% (v/v) non-inactivated FBS, 1% (v/v) antibiotic solution, 1.5 g/L sodium bicarbonate, and 1 mM sodium pyruvate. Macrophages were mechanically detached with a cell scraper and subcultured in (1:10) proportion of cellular suspension to a final volume of DMEM. The human monocytic cell line THP-1 (ATCC® TIB-202™, American Type Culture Collection, Manassas, VA, USA) was cultivated in RPMI 1640 supplemented with 10% inactivated FBS, 25 mM (D)-glucose, 10 mM HEPES, 1 mM sodium pyruvate, 100 U/mL penicillin, and 100 μg/mL streptomycin, and maintained at a cell density of 0.4 × 10^6 cells/mL. Cells were subcultured every 2 or 3 days and maintained in culture for 2–3 months, according to ATCC® instructions.
Following OECD guidelines, researchers utilized the THP-1 human monocyte cell line as a substitute for dendritic cells (DCs) to assess skin sensitization potential. Adapting OECD Test Guideline No. 442E [24], cell density was adjusted to 5.0 × 10^5 cells/mL and allowed to stabilize overnight at 37 °C. Then, 1.5 mL/well of cell suspension was added to a 12-well plate, and solutions of AA, AAG, and AAGS (500 µM) were applied. After 1 h of pre-incubation, a solution of DNFB was added (8 µM), and the cells were further incubated for 24 h. Afterwards, the cells were centrifuged at 300× g for 5 min, the supernatant was discarded, and the cell pellet was washed with PBS containing 1% FBS (2 × 1 mL) and centrifuged. The cell pellet was resuspended in 1 mL of PBS/1% FBS and 200 µL were collected in two microtubes: 100 µL for the unstained (UNST) and 100 µL for the stained (CD5486) conditions. For each stained condition, anti-CD54-APC and anti-CD86-Alexa Fluor 488 (BioLegend, London, UK) were added, and the cells were incubated for 30 min at 4 °C, protected from light. Then, cells were washed twice with 1 mL PBS/1% FBS solution and centrifuged. The cell pellet was further resuspended in 100 µL of PBS and analyzed by flow cytometry using a BD Accuri™ C6 cytometer (San Jose, CA, USA).
(§2) CD86 and CD54 levels were analyzed by flow cytometry using the acquisition channels FL1 and FL4. Mitochondrial O2^− production was measured by flow cytometry using the acquisition channel FL2. The relative fluorescence intensity (RFI) of CD86 and CD54 (THP-1 maturation assay) and MitoSOX (mitochondrial antioxidant activity) in the control and chemical-treated cells, based on the geometric mean fluorescence intensity (MFI), was calculated according to the following equation: RFI=MFI of chemical treated cells−MFI of chemical treated unstained cells/MFI of control treated cells−MFI of control unstained cells ×100
The results of at least three independent experiments were represented as a percentage of the control RFI, which was assumed to be 100%.

[2] = tested on: RAW264.7 cells (mitochondrial O2− production); test: Mitochondrial antioxidant activity (MitoSOX, rotenone-induced superoxide); format: cell-based, mouse; conditions: 500 μM; for mitochondrial antioxidant activity: rotenone 20 μM
Description: as §1
Mitochondrial superoxide (O2^−) generation was determined using the MitoSOX Red kit, according to the manufacturer’s instructions. Briefly, 5.0 × 10^5 cells/mL were plated in a 12-well plate and incubated for 24 h at 37 °C. The cells were then exposed to the AA, AAG and AAGS solution (500 µM), and after 1 h, rotenone (20 μM) was added, followed by incubation for an additional 5 h. The cells were then carefully detached, transferred to microtubes, and centrifuged at 500× g for 3 min. The cell pellet was washed with HBSS solution (2 × 1 mL), resuspended in PBS solution, and 300 µL was collected in two microtubes for unstained (150 µL) and stained (150 µL) conditions. The stained cells were incubated with 100 μL of freshly prepared MitoSOX solution 2.5 µM at 37 °C for 15 min in the dark. The stained cells were washed with HBSS solution (2 × 1 mL), and the cell pellet was resuspended in 100 μL of PBS and analyzed by flow cytometry using a BD Accuri™ C6 cytometer (San Jose, CA, USA).
as §2

[3] = DPPH radical scavenging assay; conditions: ethanol, 15 min in the dark, 517 nm; ± SD
Description: Stock solutions of each compound (100 µM) and DPPH solution (150 µM) were prepared in ethanol. Different concentrations of antioxidant solutions (0.1–50 µM) were prepared to test their antioxidant effect. In a 96-well plate, 100 µL of DPPH working solution was added to a 100 µL sample solution and incubated at room temperature for 15 min in the dark. The absorbance of each sample was measured at 517 nm, in a microplate reader. For the negative control, 100 μL ethanol was added instead of the antioxidant solution. Rutin was used as the positive control. Inhibition curves were constructed, and the half maximal effective concentration (EC50) values were calculated for all samples by linear regression for the three independent assays performed.

[4] = compound 500 µM, 1 h pre-incubation, 24 h, mean ± SEM

Row | EC50 [3] [µM] | SMILES | anti-allergic profile regarding CD86 ([1]; 500 µM) | inhibition of DNFB-induced maturation of THP-1 cells ([1]; 500 µM) | RFI of CD54 expression, DNFB-induced maturation [1, 4] | RFI of CD86 expression, DNFB-induced maturation [1, 4] | pro-oxidant profile [2] | mitochondrial antioxidant activity [2]
1 | 5.28 ± 0.36 | O=C1OC(C(COS(=O)(=O)O)OS(=O)(=O)O)C(OS(=O)(=O)O)=C1OC1OC(COS(=O)(=O)O)C(OS(=O)(=O)O)C(OS(=O)(=O)O)C1OS(=O)(=O)O [AAGS, 2-O-α-D-glucopyranosyl-L-ascorbic acid persulfate] | exhibited anti-allergic profile | anti-allergic activity | 986.89% ± 80.51% | 168.90% ± 16.30% | non-prooxidant; also recorded: AA, AAG, and AAGS with no pro-oxidant profile % inhibition of rotenone-induced SO2^− production: AA > AAG > AAGS | did not demonstrate an ability to exert antioxidant activity in mitochondria
2 | 1.54 ± 0.21 | O=C1O[C@H]([C@@H](O)CO)C(O)=C1O [AA, Ascorbic acid] | exhibited anti-allergic profile | – | – | – | AA, AAG, and AAGS with no pro-oxidant profile % inhibition of rotenone-induced SO2^− production: AA > AAG > AAGS | –
3 | 9.15 ± 0.13 | O=C1O[C@H]([C@@H](O)CO)C(O)=C1O[C@H]1O[C@H](CO)[C@@H](O)[C@H](O)[C@H]1O [AAG, 2-O-α-D-glucopyranosyl-L-ascorbic acid] | – | – | 995.78% ± 80.51% | – | AA, AAG, and AAGS with no pro-oxidant profile % inhibition of rotenone-induced SO2^− production: AA > AAG > AAGS | did not demonstrate an ability to exert antioxidant activity in mitochondria
